# Test results from PubChem BioAssay AID720513 (Broad Institute, 2013).
# Records with an inconclusive call do not appear.
# Tested on: U2OS PGC1a acetylation AlphaLISA, overnight
# Assay: activators raising PGC1a acetylation in cells, dose response, cell-based, cherry-picked samples, set 6 (AID 720513);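 further: cells made to overexpress flag tagged PGC1a plus GCN5 acetyltransferase by viral infection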
row,SMILES,AC40 [µM]
1,CO[C@@H]1CN(C)C(=O)c2cc(NC(=O)c3ccc(Oc4ccccc4)cc3)ccc2OC[C@@H](C)NC[C@@H]1C,15.2
2,COc1ccc(-c2nc(N)c(C#N)c(-c3cccnc3)c2C)cc1,0.69
3,CNC(=O)c1nnsc1S(=O)c1ccc(Cl)cc1 (stereo not drawn),1.96
4,CC1CCN(S(=O)(=O)c2ccc(NC(=O)c3ccccc3F)cc2)CC1,15.3
5,Cn1cc(-c2ccc(C(=O)NCc3cccc(Cl)c3)c3occc23)cn1,4.85
6,CCOC(=O)c1c(-c2ccc(C)cc2C)csc1NC(=O)CSc1nnnn1C,8.11
7,C[C@@H]1CN([C@H](C)CO)C(=O)c2cc(N(C)C)ccc2O[C@@H](C)CCCCO[C@H]1CN(C)C(=O)Cc1ccccc1,5.69
8,COc1ccc(NC(=O)N(C)C[C@H]2OCc3ccccc3-c3c(n(C)c4ccccc34)C(=O)N([C@@H](C)CO)C[C@H]2C)c(OC)c1,3.5
9,COc1ccc(N(C(=O)c2snc(C(N)=O)c2N)C(C(=O)NC2CCCCC2)c2ccc(F)cc2)c(OC)c1 (stereo not drawn),3.26
10,C=CCn1c(SCC(=O)NC(=O)NCc2ccco2)nc2sc(CC)cc2c1=O,11.3
11,COc1ccc(CN(CCC(C)C)S(=O)(=O)c2ccccc2Br)cc1,2.04
12,O=S(=O)(NC12CC3CC(CC(C3)C1)C2)c1ccc(F)cc1,4.02
13,C=CCn1c(=NC(=O)c2ccc(S(=O)(=O)N3CCCC3)cc2)sc2cc(NC(C)=O)ccc21,12.3
14,COc1cccc(S(=O)(=O)N(C)C[C@@H]2Oc3cc(C4=CCCC4)ccc3S(=O)(=O)N([C@H](C)CO)C[C@@H]2C)c1,13
15,COc1ccc(CC(=O)OCC(=O)NCc2ccco2)cc1,9.28
16,Cc1cccc2cc(CN(Cc3ccc(F)cc3)Cc3nnnn3C3CCCC3)c(=O)[nH]c12,4.14
17,Cc1cc(C(=O)NNS(=O)(=O)c2ccccc2C(F)(F)F)nn1C(C)(C)C,1.04
18,COc1ccc(C)cc1NS(=O)(=O)c1ccc(NC(=O)CN(c2cc([N+](=O)[O-])ccc2C)S(C)(=O)=O)cc1,0.426
19,Cc1cccc(CS(=O)(=O)c2ncc(Cl)c(C(=O)Nc3ccc(F)cc3)n2)c1,1.56
20,COc1ccc(C(CNC(=O)c2cccc(N(C)C)c2)N2CCCC2)cc1 (stereo not drawn),5.4
21,CCCCN=C1NC(=O)C(CC(=O)Nc2ccc(Cl)cc2)S1 (stereo not drawn),3.53
22,Cc1cccc(C(=O)Nc2ccc(C(=O)/C=C/c3cccnc3)cc2)c1,2.34
23,Cc1ccc2[nH]c(=O)c(CN(Cc3ccc4c(c3)OCO4)Cc3nnnn3C3CCCC3)cc2c1,7.98
24,CCOc1ccccc1N(C)C(=O)C1CCN(S(=O)(=O)c2cccc3nonc23)CC1,3.29
25,COc1ccc(-c2c(-c3cc(OC)cc(OC)c3)n(C)c3ccc(-c4cnc(N)nc4)cc23)cc1,0.974
26,COc1ccc(S(=O)(=O)N(C)CC(=O)Nc2cccc(C(C)=O)c2)cc1Cl,9.1

row,SMILES,AC40 [µM]
1,O=C(CCc1nc2ccccc2c(=O)[nH]1)Nc1ccc(N2CCCCC2)cc1,4.4
2,O=C(Cn1c(CN2CCCCC2)nc2ccccc2c1=O)Nc1ccccc1,5.19
3,CCOC(=O)C(C)n1cnc2c(nnn2-c2ccc(C)cc2)c1=O (stereo not drawn),2.7
4,Cc1ccc(C(=O)N2CCN(c3ccc(NC(=O)c4ccc(Br)o4)cc3)CC2)cc1,3.72
5,COCCN(C)Cc1nc(C(c2ccccc2)c2ccccc2)no1,9.12
6,O=C(COCc1cc(-c2ccc3c(c2)OCO3)on1)Nc1cccnc1,0.458
7,COc1ccc(OC)c(NC(=O)CSc2nnc(-c3cccnc3)s2)c1,0.792
8,O=C(NCc1ccccc1)C1Cc2c(-c3ccc(Cl)cc3)ccnc2O1 (stereo not drawn),6.16
9,N#Cc1ccccc1S(=O)(=O)N1CCN(Cc2cc3c(cc2Br)OCCO3)CC1,0.934
10,Cc1c(OCc2ccc(C(=O)O)cc2)ccc2c(-c3ccccc3)cc(=O)oc12,7.28
11,CCOC(=O)C1(Cc2ccccc2)CCN(Cc2cccc(OC)c2O)CC1,6.65
12,O=C(Cc1ccccc1)Nc1cccc(-c2nc3ncccc3o2)c1,2.71
13,CC(=O)c1cccc(N(C(=O)c2cnccn2)C(C(=O)NCc2ccccc2)c2ccco2)c1 (stereo not drawn),1.39
14,COc1cccc(N(CC(=O)NCc2cccnc2)S(C)(=O)=O)c1,14.2
15,O=C(c1ccco1)N1CCN(c2nnc(-c3ccccc3)c3ccccc23)CC1,4.28
16,C[C@@H]1CN([C@@H](C)CO)C(=O)c2c(c3ccccc3n2C)-c2ccccc2CO[C@@H]1CN(C)C(=O)c1ccccc1,5.25
17,C[C@@H]1CN([C@H](C)CO)C(=O)c2c(c3ccccc3n2C)-c2ccccc2CO[C@@H]1CN(C)C(=O)c1ccc(F)cc1,6.65
18,OCCNc1nc(N2CCCCC2)nc2ccccc12,18.1
19,c1ccc(C(c2nnnn2Cc2cccs2)N2CCN(C3CCCC3)CC2)cc1 (stereo not drawn),0.483
20,CC1(Cc2ccc(Cl)s2)C(=O)Nc2c(Cl)ccc(Cl)c21 (stereo not drawn),11.3
21,CCCc1cc2c(cc1N(C)S(=O)(=O)c1ccccc1)OCO2,2.96
22,OCc1ccc2c(c1)c(-c1ccc3c(c1)OCCO3)c(-c1ccccc1)n2-c1ccccc1,0.184
23,CCSc1ccc(NC(=O)c2cccnc2)cc1,1.65
24,COc1ccc(Br)cc1CNc1ccccc1,8.98
25,COc1ccccc1OCC(=O)Nc1ccc(Cl)cc1C(=O)c1ccccc1,7.29
26,O=C(Nc1ccc(Nc2ccncc2)cc1)c1ccc([N+](=O)[O-])cc1,3.4

row,SMILES,AC40 [µM]
1,CC/C(=C(\c1ccc(O)cc1)c1ccc(OCCN(C)C)cc1)c1ccccc1,2.41
2,O=C(NCc1ccccc1)N1CCC(n2cnc3cc(F)ccc32)CC1,1.89
3,O=C1CC(Sc2nnc(-c3ccccc3O)o2)C(=O)N1c1ccccc1 (stereo not drawn),7.23
4,CCOc1ccc(N(C)S(=O)(=O)c2cc(-c3cc(C)no3)ccc2OC)cc1,5.29
5,O=C(NCCC1CCCCN1S(=O)(=O)c1cccs1)C(=O)Nc1ccc(F)cc1F (stereo not drawn),9.6
6,CCOC(=O)c1nc(S(C)(=O)=O)ncc1Cl,1.65
7,Cc1ccc(/C(N)=N/OC(=O)c2ccco2)cc1,8.81
8,COc1ccc(OC(=O)N(C)C[C@H]2OCc3ccccc3-c3c(n(C)c4ccccc34)C(=O)N([C@@H](C)CO)C[C@H]2C)cc1,6.72
9,C[n+]1c2n(c3ccccc31)N=C(c1cc(C(C)(C)C)c(O)c(C(C)(C)C)c1)CS2,3.5
10,C[C@@H]1CN([C@@H](C)CO)C(=O)Cc2cc(NC(=O)Cc3ccccc3)ccc2O[C@H]1CN(C)C(=O)Nc1ccccc1,0.263
11,O=C(CCCn1c(=O)[nH]c2cc(Cl)ccc2c1=O)NCCC1=CCCCC1,0.371
12,O=C(NCc1ccccc1)c1ccc(NC(=O)C2CC2)cc1,11.1
13,COc1ccc(-c2csc3nc(C)nc(N4CCC(C)CC4)c23)cc1OC,3.8
14,COc1cccc(-c2ccc(C3[C@@H]4CN(S(=O)(=O)c5cccc(OC)c5)C[C@H]3N4)cc2)c1 (stereo partly drawn),10.5
15,Cc1cc2oc(=O)cc(CN3CCC(C)CC3)c2cc1C,5.71
16,CC(=O)c1cc(-c2ccccc2)n(CCC(=O)NC2CCCCC2)c1C,7.4
17,Cc1ccc(NC(=O)c2sccc2SCc2cccc(C(F)(F)F)c2)cc1,5.13
18,COc1ccc(S(=O)(=O)N2CCOCC2)cc1NC(=O)CCNC(=O)c1ccc(Cl)cc1,0.772
19,CN1Cc2c(N3CCOCC3)nc3sc(C(=O)c4ccc(Br)cc4)c(N)c3c2CC1(C)C,0.996
20,COc1ccc(-n2c(=O)c3c4c(sc3n3c(=S)[nH]nc23)CCC4)cc1,0.563
21,CCOC(=O)c1c(NC(=O)CSc2cn(CC)c3ccccc23)sc2c1CCC2,6.55
22,Cc1ccccc1-c1ccc2c(c1)O[C@H](CN(C)Cc1ccncc1)[C@@H](C)CN([C@@H](C)CO)S2(=O)=O,14.9
23,CCOc1ccc(N(C)S(=O)(=O)c2cc(-c3cc(C)no3)ccc2C(C)C)cc1,2.97
24,Nc1c(C(=O)Nc2ccccc2)sc2ncc([N+](=O)[O-])cc12,1.06
25,O=C(Nc1ccc(F)cc1)N1CCN(c2nc3ccccc3s2)CC1,2.7
26,C[C@@H]1CN([C@@H](C)CO)C(=O)c2c(c3ccccc3n2C)-c2ccccc2CO[C@@H]1CN(C)C(=O)Nc1ccc(F)cc1,7.76

row,SMILES,AC40 [µM]
1,CC12CCC(C1)C(C)(C)C2NS(=O)(=O)c1ccc(F)cc1 (stereo not drawn),5.98
2,CCCOc1ccc(C(=O)Nc2cccnc2)cc1,2.52
3,CCOC(=O)CC(S(=O)(=O)c1ccccc1)S(=O)(=O)c1ccccc1,4.09
4,O=C(Nc1ccc(-c2noc(CCc3ccccc3)n2)cc1)c1cccnc1,0.346
5,CCOC(=O)C1=CC[C@@H](c2ccc(F)cc2)N(S(=O)(=O)c2ccc(C)cc2)[C@H]1c1ccccc1,3.22
6,N#C/C(=C(/O)c1ccco1)c1nc2ccccc2[nH]1,0.841
7,COc1ccccc1/C=C1\SC(=S)N(CCC(=O)NCCCn2ccnc2)C1=O,2.88
8,COc1ccc(NC(=O)c2sccc2SCc2cccc(C(F)(F)F)c2)cc1,4.18
9,COc1ccc2nc3c(cc2c1)c(NC(=O)c1cccs1)nn3CC(C)C,5.35
10,O=C(Nc1ccc2c(c1)OCO2)C1CCN(c2ccc(S(=O)(=O)N3CCOCC3)cc2)CC1,9.15
11,CC(C)(C)c1ccc(C(=O)Nc2ccc(C(=O)NCc3cccnc3)cc2)cc1,< 0.16
12,CCOC(=O)c1c(CN2CCN(CC#N)CC2)n(C)c2cc(Br)c(OC)cc12,0.701
13,COc1cccc(NC(=O)N(C)C[C@H]2OCc3ccccc3-c3c(n(C)c4ccccc34)C(=O)N([C@@H](C)CO)C[C@@H]2C)c1,18.3
14,Cc1cc(C)c2nc(N(CCCN(C)C)C(=O)c3ccc(S(=O)(=O)N4CCCCCC4)cc3)sc2c1,2.9
15,N#Cc1ccc(C(=O)CSc2nnc(-c3ccc(C(F)(F)F)cn3)s2)cc1,17.8
16,Cc1ccc(OCC(=O)NCCCNC(=O)c2cccnc2)cc1C,2.1
17,CCc1nnc(NC(=O)Cc2ccc(S(=O)(=O)N3CCCCC3)cc2)s1,16.6
18,O=C(CSc1nc2ccccc2c(=O)n1CC1CCCO1)N1CCN(c2ccccc2)CC1 (stereo not drawn),18.6
19,CCN(CC)c1ccc(NC(=O)c2cc(OC)cc(OC)c2)c(C)c1,12.3
20,COc1ccc(C(c2ccc(OC)cc2)C(Cl)(Cl)Cl)cc1,0.729
21,CCCCC(=O)Nc1ccc(C(=O)NCCCn2ccnc2)cc1,0.269
22,Cc1cc(Cn2nc(C(=O)NCc3cccc(C(F)(F)F)c3)cc2-c2ccccc2)on1,5.81
23,COc1cc(OC)c2c(-c3cccc(-c4cccc(C)c4)c3)cc(=O)oc2c1,1.56
24,CC(Oc1ccc(Cl)cc1Cl)c1nc(-c2ccc(NC(=O)c3cccnc3)cc2)no1 (stereo not drawn),0.581
25,OC[C@H]1O[C@@H](n2cnc3c(NCc4ccco4)ncnc32)[C@H](O)[C@@H]1O,7.4
